Experimental data published in patent US20250108048A1, “STING AGONIST COMPOUNDS AND CONJUGATES” (SUTRO BIOPHARMA, INC., priority 2023, published 2025).
Like-named read-outs stand apart in the source and are kept apart here.

What was measured:
[1] = target: T1, hSTING-HAQ haplotype (Homo sapiens, UniProt Q86WV6, G230A/H232R/R293Q/R71H); assay: THP-1-Dual reporter assay (endogenous hSTING-HAQ); type: cell-based; conditions: THP-1-Dual cells (hSTING-HAQ), 24 hours
T1 construct: host or cells: THP-1-Dual
T1 sequence (Q86WV6 whole entry R71H/G230A/H232R/R293Q): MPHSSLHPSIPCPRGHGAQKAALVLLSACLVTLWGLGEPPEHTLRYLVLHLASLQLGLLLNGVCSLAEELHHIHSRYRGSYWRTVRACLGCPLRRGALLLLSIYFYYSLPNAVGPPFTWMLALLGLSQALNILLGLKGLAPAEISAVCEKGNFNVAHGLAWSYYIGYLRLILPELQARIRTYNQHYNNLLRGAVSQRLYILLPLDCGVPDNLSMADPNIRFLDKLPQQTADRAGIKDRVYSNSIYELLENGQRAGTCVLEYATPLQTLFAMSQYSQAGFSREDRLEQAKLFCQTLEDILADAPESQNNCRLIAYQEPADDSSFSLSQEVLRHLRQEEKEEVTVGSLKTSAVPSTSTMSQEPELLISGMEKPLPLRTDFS

[2] = target: hSTING WT (Homo sapiens, UniProt Q86WV6); assay: Surface plasmon resonance, hSTING WT; type: binding; conditions: read-out: hSTING WT SPR (Kd)
Sequence of hSTING WT (Q86WV6 whole entry H232R): as the sequence (Q86WV6 whole entry R71H/G230A/H232R/R293Q) above, with H71R, A230G, Q293R counted along it

[3] = target: hSTING H232 (Homo sapiens, UniProt Q86WV6); assay: Surface plasmon resonance, hSTING H232; type: binding; conditions: read-out: hSTING H232 SPR (Kd)
Sequence of hSTING H232 (Q86WV6 whole entry): as the sequence (Q86WV6 whole entry R71H/G230A/H232R/R293Q) above, with H71R, A230G, R232H, Q293R counted along it

[4] = test system: TROP2 positive NCI-H292 Cells; assay: Cytokine release from cancer cells (MSD); type: cell-based, human; conditions: 120 hours; for EC50: Homo sapiens
Protocol: The cell supernatant was collected and IP-10 and IL-6 released in the cell culture medium was measured using Streptavidin single spot 96 well plates, compatible human antibody pairs, and calibrating solutions commercially available from MesoScale Discovery. Raw data generated by the Meso Scale Discovery (MSD®) SQ120 plate reader was imported into MSD Discovery Workbench software. Unknown sample values were interpolated from standard curves by the software and imported into Graphpad Prism. Each cytokine level was fitted with non-linear regression analysis, using log (agonist) vs. response, variable slope, 4-parameter fit equation in GraphPad Prism.

[5] = test system: NCI-H292 cells; assay: Immunogenic cell death markers (HMGB1 release, surface calreticulin); type: cell-based, human; conditions: 48 hours
Protocol: Immunogenic cell death elicited by the TROP2 ADC, iSAC, and exatecan were measured by cell surface translocate of calreticulin and release of HMGB1 in the cell culture supernatant. Briefly, TROP2 positive cell line NCI-H292 were seeded into a 96-well flat bottom plate 4 hours prior to the initialization of the assay. Test articles were formulated at a 2× starting concentration in cell culture medium, and samples were serial diluted (1:3) under sterile conditions and added onto the cells in duplicates. After incubation at 37° C. in a CO2 incubator for 48 hours, the cell supernatant was collected for measuring HMGB1 and the adherent cells were collected for calreticulin expression on the cell surface.
HMGB1 released in the supernatant was assessed via sandwich ELISA using mouse anti-human HMGB1 clone 2F6 (Sigma-Aldrich) as the capture, polyclonal rabbit anti-human HMGB1 (Abcam) as secondary, and polyclonal goat anti-rabbit IgG HRP as the detection antibody. The HMGB1 concentrations in the cell culture medium were calculated based a standard curve built on commercially available recombinant human HMGB1 (R&D Systems).
NCI-H292 cells were detached using Accutase (Innovative Cell Technologies) and viability was accessed using a 1:500 dilution of Zombie NIR viability dye. […] Surface calreticulin measures on the live cells were gathered using an Attune NXT Flow Cytometer (ThermoFisher Scientific) to obtain median fluorescence intensity values. All data were fitted with non-linear regression analysis, using log(agonist) vs. response, variable slope, 4 parameter fit equation using GraphPad Prism.

EC50 [1]: 50 to 150 nM
Kd [2]: ≤ 20 nM
Kd [3]: ≤ 20 nM
EC50 ([4]; read-out: IL-6 Release EC50): > 100 nM
EC50 ([4]; read-out: IP-10 Release EC50): > 100 nM
SMILES: CCn1nc(C)cc1C(=O)Nc1nc2cc(C(N)=O)cc(OC)c2n1C/C=C/Cn1c(NC(=O)c2cc(C)nn2CC)nc2cc(C(N)=O)cc(OCCCN3CCC(c4nnc5n4CCNC5)CC3)c21 [Compound 4, 1-[(E)-4-[5-carbamoyl-2-[(2-ethyl-5-methyl-pyrazole-3-carbonyl)amino]-7-[3-[4-(5,6,7,8-tetrahydro-[1,2,4]triazolo[4,3-a]pyrazin-3-yl)-1-piperidyl]propoxy]benzimidazol-1-yl]but-2-enyl]-2-[(2-ethyl-5-methyl-pyrazole-3-carbonyl)amino]-7-methoxy-benzimidazole-5-carboxamide; 2,2,2-trifluoroacetic acid]
IL-6 Release Span [4]: >8000 pg/mL
IP-10 Release Span [4]: >4000 pg/mL
HMGB-1 Release Span [5]: 11 ng/mL
EC50 ([5]; Homo sapiens, sandwich ELISA, read-out: HMGB-1 Release EC50): 7.45 nM
